Assay results taken from PMC12057046, “Elucidation of short linear motif-based interactions of the MIT and rhodanese domains of the ubiquitin-specific protease 8” (Biology Direct, 2025).

Columns and labels:
USP8 MIT domain [1] = assay: SPOT array alanine scanning, USP8 MIT domain; format: binding, human; details: cellulose-bound peptides, GST-tagged MIT 100 µM, 5% skim milk TBST, overnight 4 °C, anti-GST HRP chemiluminescence; normalized to wild type
Experimental: SPOT array alanine scanning of peptides was designed, and cellulose-bound peptides were synthesized using Fluorenylmethyloxycarbonyl (Fmoc) solid phase synthesis with a MultiPep synthesizer (INTAVIS Peptide Services, Tübingen, Germany). The membranes of predicted peptides were purchased by JPT Peptide Technologies (Berlin, Germany). The membranes were incubated with blocking buffer containing 5% skim milk in TBST (50 mM Tris, 150 mM NaCl pH 7.5, 0.05% Tween-20) for two hours at room temperature. The blocked membranes were incubated with GST-tagged proteins (100 µM for MIT domain and 150 µM for the Rhodanese domain) in blocking buffer overnight at 4 °C. After rinsed with TBST the membranes were incubated with HRP-conjugated anti-GST antibody (Cytiva, RPN1236; 1:3000 dilution) in blocking buffer for 1 h at 4 °C and subsequently rinsed with TBST to remove any excess antibody. The ECL reagent (Clarity Max Western ECL substrate, 1705062, BioRad) was used for chemiluminescence read-out with the ChemiDoc Imaging system (BioRad). The images were analysed with Fiji (ImageJ2 version 2.9.0). SLiMSearch4 was used to design the peptide arrays with known interactors predicted to contain the motifs. The background signal intensity was subtracted, and the corrected signal intensities were normalized to the positive control and presented as percentage.

USP8 MIT domain [2] = assay: Proteomic peptide-phage display (ProP-PD) selection against USP8 MIT domain; format: binding, human; parameters: Confidence: scale not given here; details: for NGS counts (%): ProP-PD, human disorderome library, GST-tagged MIT bait, four rounds of selection, percent of NGS counts associated with each peptide, Fig. 1B; for max_counts: Total NGS counts; for Confidence: calculated based on four metrics: overlapping peptides, replicated peptides, motif match, peptide counts; for Counts: fraction of NGS counts for a selection; for Promiscuity: number of baits selections where the peptide has been observed, calculated on the domain level; for Replicates: number of screens against the bait protein in which the peptide has been found; for Specificity: proportion for the current bait of the total NGS read counts of the peptide for all baits screened with this library
Experimental: We explored the peptide-binding of the USP8 MIT domain by using the purified GST-tagged MIT domain as bait in proteomic peptide-phage display (ProP-PD) selections and a library designed to display the predicted unstructured regions of the human proteome. The peptide-coding regions of the binding-enriched phage pools were analysed by next-generation sequencing (NGS). After filtering for high confidence ligands, ten ligands remained (Fig. 1B; Supplementary Table S1). None of the ten identified protein-protein interactions had been previously reported, based on comparison with the information available in IntAct, HIPPIE and BioGrid (February 2025). Of the USP8 interacting proteins found, the D site-binding protein (DBP), which is a clock-controlled transcription factor, appears as an interesting ligand as USP8 has been reported to be involved in controlling the circadian rhythm. Also, the CCDC88A-encoded protein Girdin is an interactor of potential biological relevance as it is a scaffolding protein involved in the EGFR pathway which USP8 is known to regulate. At the motif level, there was no shared consensus motif among the ten peptide ligands. However, by manual inspection we noticed that four of the peptides contained a shared [LI]xxR[IY]xxL sequence, which appears to be a variation of the [DE]xxLxxRLxxL[KR] MIM1 motif described in the Eukaryotic Linear Motif resource (ELM) (Fig. 1B). We performed a SPOT array alanine scanning analysis in which peptides are synthesised on a membrane, and where each amino acid position of the peptide is mutated to alanine (or glycine if alanine is in the wild type peptide) to evaluate the effect of the amino acid residues in binding. We tested two peptides containing the apparent MIM1-like motif, one from Girdin (Girdin1192 − 1207) and one from the histone-lysine N-methyltransferase SETD1B (SETD1B492 − 507). […] AlphaFold3 (AF3) modelling of the four peptides with the variant MIM1 motif and the MIT domain docked the peptides with high confidence (ipTM scores: HIVEP1_741 − 756: 0.87, Girdin1192 − 1207: 0.85, MLPH481 − 496: 0.82, SETD1B492 − 507: 0.75) at the expected MIM1 binding pocket (Fig. 1D). […] However, the USP8 MIT selection was dominated (more than 94% of NGS counts) by two peptides that lack an apparent MIM1 motif. The two peptides were from the EF-hand calcium-binding domain-containing protein 12 (EFCAB12_1 − 16: […]) and from DBP (DBP116 − 131: […]) (Fig. 1B). […] In comparison to this, the EFCAB12_1 − 16 peptide shares a potential Dx[YF]xxxH[SG] motif with the DBP116 − 131 (Fig. 1B). […] The AF3 model of DBP116 − 131 peptide supports the interaction of D120 of the DBP116 − 131 peptide with the residues K74 and N71 in the MIT domain (Fig. 1G), emphasizing the significance of the aspartic acid at this position. […] Of them, two peptides (SYNE2_853 − 868 and PKNOX1_56 − 71) where placed in the same binding site as the Girdin and DBP peptides with high confidences by AF3 modelling (ipTM 0.92 and 0.74; Supplementary Fig. S3).
Four rounds of phage selections were carried out using the second generation human disorderome library or the constructed deep mutational scanning library. At least three individual replicates were used for each bait protein. 10 µg of GST-tagged proteins or GST control (diluted in PBS from the stock of proteins kept in the purification elution buffer) were immobilized in 100 µL PBS on a 96-well MaxiSorp (Nunc) plate overnight at 4 °C. The plates were incubated with blocking buffer (with 0.5% BSA in PBS) for 1 h at 4 °C followed by washing with 0.05% Tween 20 in PBS four times. The naïve phage library (10^11 CFU) was diluted in 1/5th volume PEG/NaCl (20% PEG-8000, 0.4 M NaCl) and 1X PBS, incubated on ice for 10 min and centrifuged at 10,000 [drawing 3] g for 10 min. The pellet was resuspended in the volume of PBS (100 µL/ well). […]

USP8 MIT domain [3] = assay: SPOT array of predicted peptides from known interactors, USP8 MIT domain; format: binding, human; details: for Percentage (%) normalized to highest intensity and corrected for background: SPOT array, GST-tagged MIT 100 µM, overnight 4 °C, chemiluminescence, highest intensity = DNAJB6; for Percentage (%): Supplementary Fig. 4B, normalized to the highest intensity and corrected for background
Excerpt: To further assess the SLiM-based interactions of the USP8 MIT domain, we designed a peptide array tiling 24 potential binding sites in previously reported USP8 interactors. We used SLiMSearch to search for peptides that contain shorter or longer matches to the motif (Supplementary Table S4A). […] The DNAJB6_118 - 130 peptide was predicted as a binder based on a partial DFx{2,3}R motif. The DNAJB6-USP8 interaction is supported by previous GST-pulldown experiments and colocalization of the two proteins in male mouse germ cells, and the interaction is thought to be of importance to the protein quality control to yield functional spermatozoa. In the case of the CDH1_863 - 877 peptide it was predicted as USP8 MIT ligand based on the presence of an RFxxL motif. The previous support of the CDH1-USP8 interaction is based on proximity labelling mass spectrometry, and our results thus provide evidence for a binary interaction between the two proteins and define a binding site. To confirm that the motifs used to predict the interactions were of importance for binding we designed an alanine scanning peptide SPOT array analysis of the DNAJB6_118 - 130 and the CDH1_863 - 877 peptides. […] In summary, we find that the USP8 MIT domain binds to a MIM1-like motif that can be expressed by [[…]], as well as degenerate variants thereof. […] The membranes of predicted peptides were purchased by JPT Peptide Technologies (Berlin, Germany). The membranes were incubated with blocking buffer containing 5% skim milk in TBST (50 mM Tris, 150 mM NaCl pH 7.5, 0.05% Tween-20) for two hours at room temperature. The blocked membranes were incubated with GST-tagged proteins (100 μM for MIT domain and 150 μM for the Rhodanese domain) in blocking buffer overnight at 4 °C. After rinsed with TBST the membranes were incubated with HRP-conjugated anti-GST antibody (Cytiva, RPN1236; 1:3000 dilution) in blocking buffer for 1 h at 4 °C and subsequently rinsed with TBST to remove any excess antibody. The ECL reagent (Clarity Max Western ECL substrate, 1705062, BioRad) was used for chemiluminescence read-out with the ChemiDoc Imaging system (BioRad). The images were analysed with Fiji (ImageJ2 version 2.9.0). […] used to design the peptide arrays with known interactors predicted to contain the motifs. The background signal intensity was subtracted, and the corrected signal intensities were normalized to the positive control and presented as percentage.

USP8 Rhod domain = target: T1, USP8 Rhod domain (Homo sapiens, UniProt P40818); assay: Competitive fluorescence polarization (displacement of FITC-TET3_1705 − 1720); format: binding; details: FP displacement, 1.5 µM protein, 10 nM FITC-labeled peptide, 50 mM sodium phosphate pH 7.4, 1 mM DTT; mean ± SD, N = 3 technical triplicates (Fig. 3 legend)
T1 construct: USP8 Rhod (174–317) (UniProt: P40818); GST (cleaved yes); made in house; host or cells: Escherichia coli BL21-Gold (DE3)
T1 sequence (P40818 174-317): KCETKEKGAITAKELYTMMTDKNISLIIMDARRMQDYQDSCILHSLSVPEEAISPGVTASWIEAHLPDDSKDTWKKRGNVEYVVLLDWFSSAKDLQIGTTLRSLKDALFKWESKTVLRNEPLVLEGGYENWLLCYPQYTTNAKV
Experimental: We next evaluated the peptide binding of the Rhod domain by ProP-PD selections. […] (February 2025).
The peptides were obtained from GeneCust (France) with > 95% purity. Measurement of the direct binding with a constant concentration of FITC-labeled peptides was performed by increasing concentration of the protein. The KD value from the direct binding experiment was obtained by fitting against a quadratic equation (Eq. 4) where “pept” indicates the fixed probe peptide concentrations, X indicates the protein concentration, the constant A is the signal amplitude divided by probe peptide concentration, and B is the plateau value. Eq. 4: [drawing 9]
Displacement experiments were carried out by increasing concentration of the unlabeled peptides. The data were fitted with a sigmoidal dose-response equation. The results were analysed with GraphPad Prism version 9.2.0.

PEKPHDSLDSRIEMLL [SETD1B492 − 507, Histone-lysine N-methyltransferase SETD1B peptide]
residues important for binding by SPOT array alanine scanning (USP8 MIT domain [1]): confirmed the contributions of the motif residues in binding and the aspartic acid in position p2 of the motif
NGS counts (%) (USP8 MIT domain [2]): 1.37%
max_counts (USP8 MIT domain [2]): 70
Confidence (USP8 MIT domain [2]): 3
Counts (USP8 MIT domain [2]): 0.001866
Promiscuity (USP8 MIT domain [2]): 1
Replicates (USP8 MIT domain [2]): 3
Specificity (USP8 MIT domain [2]): 1

PFEDFFGNRRGPR [DNAJB6_118 − 130, DnaJ homolog subfamily B member 6 peptide]
residues important for binding by SPOT array alanine scanning (USP8 MIT domain [1]): confirmed the importance of the aspartic acid and the phenylalanine of the predicted motif (DFx{2,3}R) and showed that the mutations of the flanking residues also reduced binding
Percentage (%) normalized to highest intensity and corrected for background (USP8 MIT domain [3]): 100%
Percentage (%) (USP8 MIT domain [3]): 100%

NEWGNRFKKLADMYG [CDH1_863 − 877, Cadherin-1 peptide]
residues important for binding by SPOT array alanine scanning (USP8 MIT domain [1]): corroborated the RFxxL motif and revealed a longer stretch is contributing to binding, with an upstream tryptophan being critical for the interaction
Percentage (%) normalized to highest intensity and corrected for background (USP8 MIT domain [3]): 71%
Percentage (%) (USP8 MIT domain [3]): 71%

CSCC[C@H](NC(=O)[C@H](CCCCN)NC(=O)[C@H](C)NC(=O)[C@H](CCC(=O)O)NC(=O)[C@H](Cc1c[nH]c2ccccc12)NC(=O)[C@H](CC(C)C)NC(=O)[C@H](C)NC(=O)[C@H](CC(C)C)NC(=O)CN)C(=O)N[C@@H](CCCCN)C(=O)N[C@@H](CCC(N)=O)C(=O)N[C@@H](CC(C)C)C(=O)N[C@@H](C)C(=O)N[C@@H](CCC(=O)O)C(=O)N[C@@H](CCCNC(=N)N)C(=O)N[C@@H](C)C(=O)O [TET3_1705 − 1720]
Kd (USP8 Rhod domain): 33 ± 9 µM

EVEHRDLEDRYNQLLK [Girdin1192 − 1207, CCDC88A-encoded protein Girdin peptide]
residues important for binding by SPOT array alanine scanning (USP8 MIT domain [1]): binding to the Girdin1192 − 1207 peptide was lost when the residues LExRYxxLL were mutated to alanine
NGS counts (%) (USP8 MIT domain [2]): 1.10%
max_counts (USP8 MIT domain [2]): 80
Confidence (USP8 MIT domain [2]): 2
Counts (USP8 MIT domain [2]): 0.002924
Promiscuity (USP8 MIT domain [2]): 1
Replicates (USP8 MIT domain [2]): 3
Specificity (USP8 MIT domain [2]): 1

YVDLDAFLLEHGLPPS [DBP116 − 131]
residues important for binding by SPOT array alanine scanning (USP8 MIT domain [1]): revealed the importance of an extended DxDxFxxEHG stretch
NGS counts (%) (USP8 MIT domain [2]): 16.16%
max_counts (USP8 MIT domain [2]): 858
Confidence (USP8 MIT domain [2]): 2
Counts (USP8 MIT domain [2]): 0.06958
Promiscuity (USP8 MIT domain [2]): 3
Replicates (USP8 MIT domain [2]): 3
Specificity (USP8 MIT domain [2]): 0.9006
Percentage (%) normalized to highest intensity and corrected for background (USP8 MIT domain [3]): 67%
Percentage (%) (USP8 MIT domain [3]): 67%

CSCC[C@H](NC(=O)CN)C(=O)N[C@@H](CCC(=O)O)C(=O)N[C@@H](CCCNC(=N)N)C(=O)N[C@H](C(=O)N[C@@H](CC(C)C)C(=O)NCC(=O)NCC(=O)N[C@@H](CC(C)C)C(=O)N[C@@H](CO)C(=O)N[C@@H](CO)C(=O)N1CCC[C@H]1C(=O)N[C@@H](CC(C)C)C(=O)N[C@@H](CCCNC(=N)N)C(=O)N[C@@H](CC(C)C)C(=O)N[C@@H](CC(C)C)C(=O)O)C(C)C [KIAA1614_568 − 583]
Kd (USP8 Rhod domain): 10 ± 2 µM
